Experimental findings from patent US20090328246A1, “USE OF THE ocp3 MUTATION TO REGULATE DROUGHT RESISTANCE IN PLANTS” (Calantia Biotech, S.L., priority 2006, published 2009) are described below.

Common to all, as to type: in vivo, Arabidopsis thaliana
The subject of one test is ocp3 plants. Description: Effect of exogenous ABA on development of seedlings in MS-Agar plates. The following applies: 0.8 μM ABA in MS-Agar; ocp3 mutant vs wt (Col-0); 17 days after seeding. On the procedure:
To study any possible effect of exogenous ABA application in the development of ocp3 plants, seeds of said mutant were seeded in MS-Agar plates, as well as in MS-Agar plates supplemented with an ABA concentration of 0.8 μM, and always using the wt wild type genotype (Col-0) as control plants in these experiments. […] Based on this it could therefore be deduced that the loss of function which can be attributed to the ocp3 mutation yields a hypersusceptibility to the ABA hormone and therefore the normal function of the OCP3 gene would be compatible with that of regulating any repression aspect of the ABA hormone transduction pathway, either in the sense of its synthesis or in that of its correct perception.
FIG. 2. Effect of ABA in the development of ocp3 plants compared with wt (Col-0) plants. The seeds were sterilized, stratified at 4° C. for 4 days and seeded in plates with MS-Agar medium and MS-Agar supplemented with 0.8 μM ABA. The photographs were taken 17 days after the seeding.
The plants were grown in Jiffy-7 compacted substrate (Clause-Tezier Iberica, Valencia, Spain) at 23° C. with a photoperiod of 10 hours of light and 14 of darkness. For the in vitro culture, the seeds were sterilized by adding 70% ethanol for 2 minutes and commercial 30% lye for 7 minutes. Subsequently, 5-7 washes with sterile water were performed and they were stratified at 4° C. for 4 days. […]

In test [1] the test system is rd29A, rd29B and rd22 water stress marker genes. Description: RT-PCR expression of rd29A, rd29B and rd22 water stress marker genes after exogenous ABA application. The source says:
A possibility that would explain the greater sensitivity to ABA of the ocp3 mutant as well as the increase in drought resistance could be that the mutation in said gene had caused a constitutive activation of the ABA-dependent signaling pathway and the final result of which would be the constitutive expression of dehydration-responsive genes which increase the protection levels against the damage caused by water stress and therefore this would aid the plants in better resisting this type of stress. For the purpose of studying this possibility, a molecular analysis was conducted, determining the expression levels (measured as accumulation of the corresponding mRNA by RT-PCR) of several signaling marker genes in response to dehydration, both of those genes activated by the ABA-dependent route, and of those genes the activation of which is independent of the ABA route. The rd29B and rd22 genes were used as markers of the ABA-dependent pathway, whereas rd29A was used for the ABA-independent pathway. The levels of the transcripts of these genes at different times (0, 1 h, 3 h and 6 h) were analyzed after incubating the plants in a liquid medium with 150 μM ABA.
FIG. 3. Analysis of the expression by RT-PCR of rd29A, rd29B and rd22 water stress marker genes in Col-0 and ocp3 plants, using the ELF1α gene as a control. The plants were grown in MS-Agar plates for 3 weeks and the RNAs were extracted from samples collected at different times. (A) Expression levels after exogenous 150 μM ABA application in a liquid culture. (B) Expression levels 10 minutes, 30 minutes and 1, 3 and 6 hours after subjecting the plants to dehydration.
FIG. 9. Comparison of the induction by ABA of the expression of rd29A, rd29B and rd22 water stress marker genes assayed by RT-PCR in RNA samples from Col-0, ocp3, aba2-1, abi1-1 and ocp3abi1-1 plants, and using the accumulation of the mRNA corresponding to the ELF1α gene as a control. The procedure was the same as that described for FIG. 3. […]
The semi-quantitative RT-PCR technique was used to determine the relative amounts of some mRNAs of interest. […]

Another test has as its system OCP3 gene. In words: Real-time PCR relative expression of OCP3 after exogenous ABA application. The following applies: 150 μM ABA; wt plants; evident at very short times. On the procedure:
In both drought and dehydration conditions, plants respond by increasing the endogenous levels of ABA, which involves the activation of a signaling cascade having as a result a series of changes at the transcriptomic level. To study the possible effect that ABA may have in transcriptional OCP3 regulation in wt plants, the relative levels of the mRNA corresponding to the OCP3 gene is measured by quantitative RT-PCR (q-RT-PCR) at different times after applying ABA, as well as after subjecting the plants to dehydration stress. The ABI1 gene was used as a control in the experiments, the expression of which is known to be induced in response to both ABA and dehydration. As can be observed in FIG. 4, both as a result of applying 150 μM ABA and after imposing a water stress to the seedlings, a sharp drop of the accumulation levels of the transcript corresponding to the OCP3 gene is observed. Said repression in the expression of the OCP3 gene as a result of the treatment with ABA or of dehydration, already becomes evident at very short times. […]
FIG. 4. Relative expression levels of OCP3 and ABI1 in response to exogenous 150 μM ABA application (A) and dehydration (B) measured by real-time PCR. […]
The samples were analyzed in triplicate and the real-time PCR reactions were performed using Sybr Green PCR Master Mix (Applied Biosystems) in an ABI PRISM 7000 sequence detector. […]
(In qPCR the cycle at which signal appears reflects the starting amount.)

Test [2] has as its system stomata of ocp3 and wt plants. Description: Measurement of the stomatal closure induced by ABA in epidermal peelings of rosette leaves. The settings on record: 100 μM ABA. The source says: There are different stimuli modifying the rate as well as the degree of opening/closure of the stomata and, among them, subjecting the plants to drought or depriving them of light should be emphasized, and both signalings are always directly related to an increase in the endogenous levels of ABA, a hormone determining the closure of stomata under inductive or stress conditions. To determine if there is any defect in ABA-mediated signaling in the ocp3 mutant, the decision was made to compare the stomatal closure rate between ocp3 plants and Col-0 plants, occurring after direct ABA application in epidermal samples (peelings) obtained from rosette leaves. […] Therefore, it is inferred from these experiments that the ocp3 mutant is more sensitive to the ABA hormone and this translates into an early response to this hormone which is manifested with an accelerated stomatal closure. The greater susceptibility to ABA is consistent with the hypersusceptibility shown by the seedlings when they are germinated and grown in the presence of ABA (FIG. 2). Furthermore, said hypersusceptibility to ABA could explain the drought resistance phenotype, since drought causes increases in ABA synthesis which in turn lead to the closure of stomata to prevent the loss of water by evapotranspiration. Thus, since the ocp3 mutant is more sensitive to ABA, it would accelerate the closure of its stomata with a drought signal and this promptness in the response could provide it with an advantage to resist the metabolic drawbacks derived from water privation better or for more time.
FIG. 7. Measurement of the stomatal closure induced by ABA (100 μM) in ocp3 and wt plants. Rosette leaves were detached from 6 week-old plants of the ocp3 and Col-0 genotypes and incubated in a solution (10 mM Mes-KOH pH 6.15 and 30 mM KCl) for 2 hours to induce the opening of the stomata. Then, 100 μM ABA was added to induce the closure of the stomata. The opening of the ostiole was measured at the different times indicated in epidermal peelings of the leaves with the different genetic backgrounds. […]

Setting [3] is: ABA application, abi1-1 and ocp3 abi1-1 double mutant, compared with wt or ocp3.

Molecules are shown by their SMILES.

With `CC1=CC(=O)CC(C)(C)[C@@]1(O)/C=C/C(C)=C\C(=O)O` [ABA, abscisic acid], the “development of the ocp3 mutant in the presence of ABA” value with ocp3 plants is listed as “arrested in the first stages of germination”. For the same compound, the “induction and accumulation levels of rd29A, rd29B, rd22 transcripts, wt (Col-0) vs ocp3” value in test [1] (150 μM ABA, liquid medium, 0, 1 h, 3 h, 6 h) was “no observable differences”. For the same compound, in test [1] (setting [3]), the “induction of the expression of the rd29A gene” value is given as “greatly reduced”; the “induction of the expression of the rd29B and rd22 genes” value is recorded as “virtually annulled”. Also, the “accumulation levels of the OCP3 transcript” value in the test with OCP3 gene was “sharp drop”. The “closure of the stomata in ocp3 plants” value in test [2] (30 minutes after applying, ocp3 plants) is listed as “accelerated closure”. In addition, the “closure of the stomata in wt control” value in test [2] (30 minutes after applying, wt (Col-0)) is given as “has still not started the process for closing its stomata”. For the same compound, the “state of the stomata of ocp3 and wt plants” value in test [2] (2 hours after applying, ocp3 and wt plants) is given as “completely closed”.
